Read-outs that look alike come from different tables or passages of the source.
Tests used:
[1] = target: HCAR3 (Homo sapiens, UniProt P49019); settings: HCAR2 natural ligands on HCAR3; cited from earlier work
[2] = tested on: HCAR2; settings: cited from earlier work
[3] = tested on: HCAR2; design: method as in PMID 19349687; settings: HCAR2 agonist; cited from earlier work
[4] = target: T1, wild-type HCAR2 (Homo sapiens, UniProt Q8TDS4); assay: SPR binding affinity, wild-type receptor
T1 construct: expressed in transfected cells; host or cells: HEK293 cells (ATCC CRL-1573)
T1 sequence (Q8TDS4 whole entry): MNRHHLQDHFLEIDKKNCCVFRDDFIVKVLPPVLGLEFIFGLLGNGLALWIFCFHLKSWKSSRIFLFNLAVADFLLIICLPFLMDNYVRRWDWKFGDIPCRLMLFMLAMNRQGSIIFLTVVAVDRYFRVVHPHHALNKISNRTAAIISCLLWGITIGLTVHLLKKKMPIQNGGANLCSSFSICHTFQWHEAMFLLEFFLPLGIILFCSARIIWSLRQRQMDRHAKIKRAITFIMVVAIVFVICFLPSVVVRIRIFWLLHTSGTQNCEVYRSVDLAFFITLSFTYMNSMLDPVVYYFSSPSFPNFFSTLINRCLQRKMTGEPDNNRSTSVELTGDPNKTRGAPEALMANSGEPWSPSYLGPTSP
Method: Varying concentrations of agonist diluted in running buffer were injected as analytes for 100 s, as the period of association. Subsequently, the running buffer was alternatively perfused over the chip to allow the bound agonist to undergo a 50 s period of disassociation. Sensorgrams were recorded in real-time and analyzed in the Biacore X100 system for the calculation of binding affinity (KD).

[5] = tested on: HCAR2 mutants at positions 86, 91, 103, 107, 176, and 178; assay: Gi/o-cAMP assay, HCAR2 residues mutated to the allelic residues in HCAR3; assay type: cell-based, human; settings: six HCAR2 residues mutated to HCAR3 residues
Method: (§1) The Gi/o-cAMP assay was performed as follows. […] Data were analyzed with GraphPad Prism 9.0. The experiments were performed in triplicate.

[6] = tested on: HCAR3 mutants at positions 86, 91, 103, 107, 176, and 178; assay: Gi/o-cAMP assay, reverse mutations in HCAR3; assay type: cell-based, human; settings: reverse mutations of the six residues in HCAR3
Method: as §1

[7] = rat, compared to niacin; cited from earlier work
[8] = dog, compared to niacin; cited from earlier work

Sequence of HCAR3 (P49019 whole entry): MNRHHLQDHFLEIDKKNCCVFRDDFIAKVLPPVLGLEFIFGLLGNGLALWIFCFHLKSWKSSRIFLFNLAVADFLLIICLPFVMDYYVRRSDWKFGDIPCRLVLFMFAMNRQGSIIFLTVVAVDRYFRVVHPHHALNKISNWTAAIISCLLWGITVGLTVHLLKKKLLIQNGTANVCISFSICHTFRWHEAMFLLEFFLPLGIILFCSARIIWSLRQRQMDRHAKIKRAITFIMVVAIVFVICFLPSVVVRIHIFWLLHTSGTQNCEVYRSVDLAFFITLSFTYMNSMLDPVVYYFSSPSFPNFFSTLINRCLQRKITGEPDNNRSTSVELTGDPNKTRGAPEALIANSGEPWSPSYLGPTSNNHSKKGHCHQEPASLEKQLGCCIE

In the case of CCCC(=O)O [butyrate], the “activity toward HCAR3” value [1] is given as “no activity”.
In the case of CCCCCC(O)CC(=O)O (stereo not drawn) [3-hydroxyoctanoic acid], the “activation of HCAR2” value ([2]; natural ligand of HCAR3 tested on HCAR2) is given as “not activated”.
For C1Cc2[nH]nc(-c3nn[nH]n3)c2C1 [MK-0354], the β-arrestin activation [3] is listed as “weak”.
In the case of Cc1cnc(C(=O)O)c[n+]1[O-] [acipimox], the Kd [4] is listed as 429 nM, the “effect of mutations on agonist activity in HCAR2” value [5] is listed as “markedly reduced” and the EC50 ([2]; agonist of HCAR2) is listed as 2600 to 6000 nM. For the same compound, the “agonistic activity compared to wild-type HCAR3” value [6] was “increased”.
In the case of CC(C)(Cc1nc(-c2ccc(O)cn2)no1)C(=O)NC1=C(C(=O)O)CCCC1 [MK-6892], the flushing effect [7] is listed as “significantly relieved” and the flushing effect [8] is listed as “significantly relieved”.
In the case of CC(O)CC(=O)O (stereo not drawn) [β-OHB, β-hydroxybutyrate], the “potency for HCAR2 relative to butyrate” value ([2]; endogenous ligands) is listed as “higher potency” and the “activity toward HCAR3” value [1] is listed as “no activity”.
In the case of NC(=O)c1cccnc1 [nicotinamide], the “activity toward HCAR2” value ([2]; carboxyl group of niacin replaced with an amide group) is listed as “no longer active”.

Reference: publication PMC10682194, “Structural insights into ligand recognition and selectivity of the human hydroxycarboxylic acid receptor HCAR2” (Cell Discovery, 2023)
